# Reference: ChEMBL document CHEMBL3763135, “Synthesis and evaluation of thiophene-based guanylhydrazones (iminoguanidines) efficient against panel of voriconazole-resistant fungal isolates” (Bioorg Med Chem, 2016)
# The source made the active and inactive calls. The rule behind the calls is not given here.
# Columns and labels:
# [1] = test system: Trichophyton mentagrophytes; assay: Antifungal activity against Trichophyton mentagrophytes DMT4 by broth dilution method; type: functional
# Danio rerio [2] = organism: Danio rerio; assay: Toxicity against zebrafish embryo assessed as effect on notochord at 5 ug/ml measured at 96 hrs post fertilization by inverted microscopic analysis; type: organism-based; conditions: in vivo
# [3] = Toxicity against zebrafish embryo assessed as dead embryos at 10 ug/ml measured at 96 hrs post fertilization by inverted microscopic analysis; type: organism-based, Danio rerio; conditions: read-out: Activity
# Danio rerio [4] = organism: Danio rerio; assay: Toxicity against zebrafish embryo assessed as normal embryos at 25 ug/ml measured at 96 hrs post fertilization by inverted microscopic analysis; type: organism-based; conditions: in vivo
# Danio rerio [5] = organism: Danio rerio; assay: Toxicity against zebrafish embryo assessed as effect on eyes at 5 ug/ml measured at 96 hrs post fertilization by inverted microscopic analysis; type: organism-based; conditions: in vivo
# Danio rerio [6] = organism: Danio rerio; assay: Toxicity against zebrafish embryo assessed as unhatched embryos at 5 ug/ml measured at 96 hrs post fertilization by inverted microscopic analysis; type: organism-based; conditions: in vivo
# Danio rerio [7] = organism: Danio rerio; assay: Toxicity against zebrafish embryo assessed as unhatched embryos at 2.5 ug/ml measured at 96 hrs post fertilization by inverted microscopic analysis; type: organism-based; conditions: in vivo
# Danio rerio [8] = organism: Danio rerio; assay: Toxicity against zebrafish embryo assessed as head malformation at 2.5 ug/ml measured at 96 hrs post fertilization by inverted microscopic analysis; type: organism-based; conditions: in vivo
# Candida albicans [9] = assay: Antifungal activity against Candida albicans CA5 assessed as fungal growth at sub-MIC measured after 24 hrs by time-kill dependence-based spectrophotometric analysis relative to DMSO control; type: functional, organism-based
# Pichia kudriavzevii [10] = assay: Antifungal activity against Candida krusei ATCC 34135 by broth dilution method; type: functional
# Danio rerio [11] = assay: Toxicity against zebrafish embryo assessed as pericardial edema at 10 ug/ml measured at 96 hrs post fertilization by inverted microscopic analysis; type: organism-based; conditions: in vivo
# Candida parapsilosis = assay: Antifungal activity against Candida parapsilosis C27 by broth dilution method; type: functional; conditions: Lodderomyces parapsilosis
# Danio rerio [12] = organism: Danio rerio; assay: Toxicity against zebrafish embryo assessed as effect on otoliths at 10 ug/ml measured at 96 hrs post fertilization by inverted microscopic analysis; type: organism-based; conditions: in vivo
# Danio rerio [13] = organism: Danio rerio; assay: Toxicity against zebrafish embryo assessed as teratogenic embryos at 5 ug/ml measured at 96 hrs post fertilization by inverted microscopic analysis; type: organism-based; conditions: in vivo
# Danio rerio [14] = organism: Danio rerio; assay: Toxicity against zebrafish embryo assessed as growth retardation at 10 ug/ml measured at 96 hrs post fertilization by inverted microscopic analysis; type: organism-based; conditions: in vivo
# Danio rerio [15] = organism: Danio rerio; assay: Toxicity against zebrafish embryo assessed as skeletal deformities at 5 ug/ml measured at 96 hrs post fertilization by inverted microscopic analysis; type: organism-based; conditions: in vivo
# Danio rerio [16] = organism: Danio rerio; assay: Toxicity against zebrafish embryo assessed as effect on blood circulation at 5 ug/ml measured at 96 hrs post fertilization by inverted microscopic analysis; type: organism-based; conditions: in vivo
# Danio rerio [17] = organism: Danio rerio; assay: Toxicity against zebrafish embryo assessed as effect on notochord at 2.5 ug/ml measured at 96 hrs post fertilization by inverted microscopic analysis; type: organism-based; conditions: in vivo
# Candida albicans [18] = assay: Induction of DNA intercalation with Candida albicans genomic DNA at 25 ug/ml after 12 hrs by ethidium bromide staining based gel electrophoresis method
# Danio rerio [19] = organism: Danio rerio; assay: Toxicity against zebrafish embryo assessed as unhatched embryos at 10 ug/ml measured at 96 hrs post fertilization by inverted microscopic analysis; type: organism-based; conditions: in vivo
# Danio rerio [20] = organism: Danio rerio; assay: Toxicity against zebrafish embryo assessed as effect on eyes at 10 ug/ml measured at 96 hrs post fertilization by inverted microscopic analysis; type: organism-based; conditions: in vivo
# Danio rerio [21] = organism: Danio rerio; assay: Toxicity against zebrafish embryo assessed as effect on otoliths at 2.5 ug/ml measured at 96 hrs post fertilization by inverted microscopic analysis; type: organism-based; conditions: in vivo
# Danio rerio [22] = organism: Danio rerio; assay: Toxicity against zebrafish embryo assessed as effect on tail tip at 2.5 ug/ml measured at 96 hrs post fertilization by inverted microscopic analysis; type: organism-based; conditions: in vivo
# [23] = Toxicity against zebrafish embryo assessed as dead embryos at 2.5 ug/ml measured at 96 hrs post fertilization by inverted microscopic analysis; type: organism-based, Danio rerio; conditions: read-out: Activity
# Danio rerio [24] = organism: Danio rerio; assay: Toxicity against zebrafish embryo assessed as effect on blood circulation at 10 ug/ml measured at 96 hrs post fertilization by inverted microscopic analysis; type: organism-based; conditions: in vivo
# Fusarium oxysporum = assay: Antifungal activity against Fusarium oxysporum AB18 by broth dilution method; type: functional
# [25] = Toxicity against zebrafish embryo assessed as dead embryos at 50 ug/ml measured at 96 hrs post fertilization by inverted microscopic analysis; type: organism-based, Danio rerio; conditions: read-out: Activity
# Danio rerio [26] = organism: Danio rerio; assay: Toxicity against zebrafish embryo assessed as skeletal deformities at 10 ug/ml measured at 96 hrs post fertilization by inverted microscopic analysis; type: organism-based; conditions: in vivo
# Danio rerio [27] = organism: Danio rerio; assay: Toxicity against zebrafish embryo assessed as effect on heart beat at 2.5 ug/ml measured at 96 hrs post fertilization by inverted microscopic analysis; type: organism-based; conditions: in vivo
# Danio rerio [28] = organism: Danio rerio; assay: Toxicity against zebrafish embryo assessed as skeletal deformities at 2.5 ug/ml measured at 96 hrs post fertilization by inverted microscopic analysis; type: organism-based; conditions: in vivo
# Danio rerio [29] = organism: Danio rerio; assay: Toxicity against zebrafish embryo assessed as effect on heart beat at 5 ug/ml measured at 96 hrs post fertilization by inverted microscopic analysis; type: organism-based; conditions: in vivo
# Candida albicans [30] = assay: Antifungal activity against Candida albicans ATCC 10231 by broth dilution method; type: functional
# Danio rerio [31] = assay: Toxicity against zebrafish embryo assessed as pericardial edema at 5 ug/ml measured at 96 hrs post fertilization by inverted microscopic analysis; type: organism-based; conditions: in vivo
# Danio rerio [32] = organism: Danio rerio; assay: Toxicity against zebrafish embryo assessed as head malformation at 5 ug/ml measured at 96 hrs post fertilization by inverted microscopic analysis; type: organism-based; conditions: in vivo
# Microsporum canis = assay: Antifungal activity against Microsporum canis DMT2 by broth dilution method; type: functional
# Danio rerio [33] = organism: Danio rerio; assay: Toxicity against zebrafish embryo assessed as teratogenic embryos at 25 ug/ml measured at 96 hrs post fertilization by inverted microscopic analysis; type: organism-based; conditions: in vivo
# Danio rerio [34] = organism: Danio rerio; assay: Toxicity against zebrafish embryo assessed as effect on tail tip at 10 ug/ml measured at 96 hrs post fertilization by inverted microscopic analysis; type: organism-based; conditions: in vivo
# Danio rerio [35] = organism: Danio rerio; assay: Toxicity against zebrafish embryo assessed as growth retardation at 2.5 ug/ml measured at 96 hrs post fertilization by inverted microscopic analysis; type: organism-based; conditions: in vivo
# Candida albicans [36] = assay: Antibiofilm activity against Candida albicans assessed as inhibition of Spider medium-induced hyphae formation at sub-MIC after 24 hrs by propidium iodide and FITC-conjugated concanavaline A staining based fluorescence microscopy; type: functional, organism-based
# Danio rerio [37] = organism: Danio rerio; assay: Toxicity against zebrafish embryo assessed as normal embryos at 2.5 ug/ml measured at 96 hrs post fertilization by inverted microscopic analysis; type: organism-based; conditions: in vivo
# Aspergillus fumigatus = assay: Antifungal activity against Aspergillus fumigatus ATCC 13073 by broth dilution method; type: functional
# [38] = Toxicity against zebrafish embryo assessed as dead embryos at 25 ug/ml measured at 96 hrs post fertilization by inverted microscopic analysis; type: organism-based, Danio rerio; conditions: read-out: Activity
# Danio rerio [39] = organism: Danio rerio; assay: Toxicity against zebrafish embryo assessed as normal embryos at 5 ug/ml measured at 96 hrs post fertilization by inverted microscopic analysis; type: organism-based; conditions: in vivo
# Danio rerio [40] = organism: Danio rerio; assay: Toxicity against zebrafish embryo assessed as effect on tail tip at 5 ug/ml measured at 96 hrs post fertilization by inverted microscopic analysis; type: organism-based; conditions: in vivo
# Pichia kudriavzevii [41] = assay: Antibiofilm activity against Pichia kudriavzevii ATCC 34135 assessed as disruption of preformed biofilm after 24 hrs by concanavalin A-FITC-staining based fluorescence microscopic analysis; type: functional
# Danio rerio [42] = organism: Danio rerio; assay: Toxicity against zebrafish embryo assessed as teratogenic embryos at 2.5 ug/ml measured at 96 hrs post fertilization by inverted microscopic analysis; type: organism-based; conditions: in vivo
# Danio rerio [43] = organism: Danio rerio; assay: Toxicity against zebrafish embryo assessed as effect on notochord at 10 ug/ml measured at 96 hrs post fertilization by inverted microscopic analysis; type: organism-based; conditions: in vivo
compound,measurement,setting,value
Cl.Cl.N=C(N)N/N=C/c1ccc(-c2ccc(/C=N/NC(=N)N)s2)cc1,MIC,[1],3.9 mg/L
same,Activity,Danio rerio [2],0%
same,"mortality at 96 h, 10 ug/ml",[3],0%
same,Activity,Danio rerio [4],96.67%
same,Activity,Danio rerio [5],0%
same,Activity,Danio rerio [6],0%
same,Activity,Danio rerio [7],0%
same,Activity,Danio rerio [8],0%
same,Activity,Candida albicans [9],inactive
same,MIC,Pichia kudriavzevii [10],25 mg/L
same,Activity,Danio rerio [11],0%
same,MIC,Candida parapsilosis,50 mg/L
same,Activity,Danio rerio [12],0%
same,Activity,Danio rerio [13],0%
same,Activity,Danio rerio [14],0%
same,Activity,Danio rerio [15],0%
same,Activity,Danio rerio [16],0%
same,Activity,Danio rerio [17],0%
same,Activity,Candida albicans [18],Active
same,Activity,Danio rerio [19],0%
same,Activity,Danio rerio [20],0%
same,Activity,Danio rerio [21],0%
same,Activity,Danio rerio [22],0%
same,"mortality at 96 h, 2.5 ug/ml",[23],0%
same,Activity,Danio rerio [24],0%
same,MIC,Fusarium oxysporum,> 250 mg/L
same,"mortality at 96 h, 50 ug/ml",[25],3.33%
same,Activity,Danio rerio [26],0%
same,Activity,Danio rerio [27],0%
same,Activity,Danio rerio [28],0%
same,Activity,Danio rerio [29],0%
same,MIC,Candida albicans [30],3.9 mg/L
same,Activity,Danio rerio [31],0%
same,Activity,Danio rerio [32],0%
same,MIC,Microsporum canis,0.97 mg/L
same,Activity,Danio rerio [33],0%
same,Activity,Danio rerio [34],0%
same,Activity,Danio rerio [35],0%
same,Activity,Candida albicans [36],Active
same,Activity,Danio rerio [37],100%
same,MIC,Aspergillus fumigatus,25 mg/L
same,"mortality at 96 h, 25 ug/ml",[38],3.33%
same,Activity,Danio rerio [39],100%
same,Activity,Danio rerio [40],0%
same,MBEC,Pichia kudriavzevii [41],500 µg/mL
same,Activity,Danio rerio [42],0%
same,Activity,Danio rerio [43],0%
